In US10954269B2, “Anti-inflammatory tripeptides” (Dr. August Wolff Gmbh & Co. KG Arzneimittel, priority 2013, dated 2021):
[ ]: non-standard residue; d: D form.

Tested on: human keratinocyte cell line (HaCaT)
Assay: Cytokine secretion on protein level in activated human keratinocyte cell line HaCaT (13-plex FACS / Luminex, supernatant)
Format: cell-based
Method in brief: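 Stimulus: PMA/Ionomycin or IFN-γ, 48 h; cells: HaCaT or human peripheral-blood T-cells; tripeptide treatment; readout: supernatant cytokines via 13-plex FACS or Luminex, 48–72 h post-stimulation.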

[1] = HaCaT stimulated with IFN-γ, 10^−9M
[2] = HaCaT stimulated with IFN-γ, 10^−9M, excluded from the final assessment
[3] = HaCaT stimulated with IFN-γ, substance 10^−9M
[4] = HaCaT stimulated with PBS, 10^−9M
[5] = HaCaT stimulated with PBS, 10^−9M, excluded from the final assessment
[6] = HaCaT stimulated with PBS, substance 10^−9M
[7] = HaCaT stimulated with PMA/Ionomycin, 10^−9M
[8] = HaCaT stimulated with PMA/Ionomycin, 10^−9M, excluded from the final assessment
[9] = HaCaT stimulated with PMA/Ionomycin, substance 10^−9M

“alpha-melanocyte-stimulating hormone [α-MSH, reference compound]” showed an IL-1 cytokine concentration [1] of 238.96 pg/mL, an IL-2 cytokine concentration [1] of 119.87 pg/mL and an IL-4 cytokine concentration [1] of 70.08 pg/mL. The IL-5 cytokine concentration [1] was 184.1 pg/mL, the IL-6 cytokine concentration [1] was 750.84 pg/mL and the IL-9 cytokine concentration [1] was 83.5 pg/mL. It also gave an IL-10 cytokine concentration [1] of 82.71 pg/mL, an IL-13 cytokine concentration [1] of 55.34 pg/mL and an IL-17 cytokine concentration [1] of 598.13 pg/mL. For the same substance, the TNF-α cytokine concentration [1] was 67.75 pg/mL, the IL-12p70 cytokine concentration [2] was 0 pg/mL and the IL-22 cytokine concentration [2] was 0 pg/mL. The IL-1 cytokine concentration [3] was 0 pg/mL, the IL-2 cytokine concentration [3] was 0 pg/mL and the IL-4 cytokine concentration [3] was 0 pg/mL. It also gave an IL-5 cytokine concentration [3] of 0 pg/mL, an IL-6 cytokine concentration [3] of 202.37 pg/mL and an IL-9 cytokine concentration [3] of 0 pg/mL. For the same substance, the IL-10 cytokine concentration [3] was 0 pg/mL, the IL-12 cytokine concentration [3] was 0 pg/mL and the IL-12p70 cytokine concentration [3] was 0 pg/mL. It also gave an IL-13 cytokine concentration [3] of 0 pg/mL, an IL-17 cytokine concentration [3] of 95.44 pg/mL and an IL-22 cytokine concentration [3] of 0 pg/mL. For the same substance, the TNF-α cytokine concentration [3] was 45.91 pg/mL, the IFN-γ cytokine concentration [4] was 365.47 pg/mL and the IL-1 cytokine concentration [4] was 271.66 pg/mL. The IL-2 cytokine concentration [4] was 251.78 pg/mL, the IL-4 cytokine concentration [4] was 56.84 pg/mL and the IL-5 cytokine concentration [4] was 150.8 pg/mL. For the same substance, the IL-6 cytokine concentration [4] was 76.75 pg/mL, the IL-9 cytokine concentration [4] was 124.69 pg/mL and the IL-10 cytokine concentration [4] was 107.72 pg/mL. The IL-13 cytokine concentration [4] was 65.47 pg/mL, the IL-17 cytokine concentration [4] was 544.96 pg/mL and the TNF-α cytokine concentration [4] was 97.16 pg/mL. The IL-12p70 cytokine concentration [5] was 0 pg/mL, the IL-22 cytokine concentration [5] was 9847.56 pg/mL and the IFN-γ cytokine concentration [6] was 0 pg/mL. For the same substance, the IL-1 cytokine concentration [6] was 0 pg/mL, the IL-2 cytokine concentration [6] was 0 pg/mL and the IL-4 cytokine concentration [6] was 118.52 pg/mL. The IL-5 cytokine concentration [6] was 0 pg/mL, the IL-6 cytokine concentration [6] was 15.22 pg/mL and the IL-9 cytokine concentration [6] was 9.51 pg/mL. The IL-10 cytokine concentration [6] was 39.54 pg/mL, the IL-12 cytokine concentration [6] was 0 pg/mL and the IL-12p70 cytokine concentration [6] was 0 pg/mL. For the same substance, the IL-13 cytokine concentration [6] was 0 pg/mL, the IL-17 cytokine concentration [6] was 0 pg/mL and the IL-22 cytokine concentration [6] was 0 pg/mL. The TNF-α cytokine concentration [6] was 0 pg/mL, the IFN-γ cytokine concentration [7] was 617.26 pg/mL and the IL-1 cytokine concentration [7] was 143.16 pg/mL. The IL-2 cytokine concentration [7] was 98.72 pg/mL, the IL-4 cytokine concentration [7] was 72.6 pg/mL and the IL-5 cytokine concentration [7] was 131.91 pg/mL. For the same substance, the IL-6 cytokine concentration [7] was 113.54 pg/mL, the IL-9 cytokine concentration [7] was 105.55 pg/mL and the IL-10 cytokine concentration [7] was 111.19 pg/mL. The IL-13 cytokine concentration [7] was 55.34 pg/mL, the IL-17 cytokine concentration [7] was 338.9 pg/mL and the TNF-α cytokine concentration [7] was 103.98 pg/mL. For the same substance, the IL-12p70 cytokine concentration [8] was 0 pg/mL, the IL-22 cytokine concentration [8] was 9995.76 pg/mL and the IFN-γ cytokine concentration [9] was 0 pg/mL. For the same substance, the IL-1 cytokine concentration [9] was 0 pg/mL, the IL-2 cytokine concentration [9] was 0 pg/mL and the IL-4 cytokine concentration [9] was 113.12 pg/mL. The IL-5 cytokine concentration [9] was 0 pg/mL, the IL-6 cytokine concentration [9] was 179.03 pg/mL and the IL-9 cytokine concentration [9] was 0 pg/mL. It also gave an IL-10 cytokine concentration [9] of 93.2 pg/mL, an IL-12 cytokine concentration [9] of 0 pg/mL and an IL-12p70 cytokine concentration [9] of 0 pg/mL. For the same substance, the IL-13 cytokine concentration [9] was 0 pg/mL, the IL-17 cytokine concentration [9] was 0 pg/mL and the IL-22 cytokine concentration [9] was 0 pg/mL. For the same substance, the TNF-α cytokine concentration [9] was 0 pg/mL.

With “H-Lys-[dP]-Thr-OH [K(D)PT, reference compound]” the IL-1 cytokine concentration [1] was 257.77 pg/mL, the IL-2 cytokine concentration [1] was 129.65 pg/mL and the IL-4 cytokine concentration [1] was 84.61 pg/mL. It also gave an IL-5 cytokine concentration [1] of 166.92 pg/mL, an IL-6 cytokine concentration [1] of 728.31 pg/mL and an IL-9 cytokine concentration [1] of 83.09 pg/mL. The IL-10 cytokine concentration [1] was 73.19 pg/mL, the IL-13 cytokine concentration [1] was 59.62 pg/mL and the IL-17 cytokine concentration [1] was 664.43 pg/mL. The TNF-α cytokine concentration [1] was 100.07 pg/mL, the IL-12p70 cytokine concentration [2] was 0 pg/mL and the IL-22 cytokine concentration [2] was 0 pg/mL. The IL-1 cytokine concentration [3] was 0 pg/mL, the IL-2 cytokine concentration [3] was 131.59 pg/mL and the IL-4 cytokine concentration [3] was 52.4 pg/mL. For the same substance, the IL-5 cytokine concentration [3] was 0 pg/mL, the IL-6 cytokine concentration [3] was 238.12 pg/mL and the IL-9 cytokine concentration [3] was 0 pg/mL. For the same substance, the IL-10 cytokine concentration [3] was 0 pg/mL, the IL-12 cytokine concentration [3] was 0 pg/mL and the IL-12p70 cytokine concentration [3] was 0 pg/mL. The IL-13 cytokine concentration [3] was 0 pg/mL, the IL-17 cytokine concentration [3] was 112.82 pg/mL and the IL-22 cytokine concentration [3] was 0 pg/mL. The TNF-α cytokine concentration [3] was 50.44 pg/mL, the IFN-γ cytokine concentration [4] was 395.55 pg/mL and the IL-1 cytokine concentration [4] was 228.99 pg/mL. The IL-2 cytokine concentration [4] was 201.9 pg/mL, the IL-4 cytokine concentration [4] was 85.48 pg/mL and the IL-5 cytokine concentration [4] was 201.01 pg/mL. The IL-6 cytokine concentration [4] was 72.95 pg/mL, the IL-9 cytokine concentration [4] was 132.74 pg/mL and the IL-10 cytokine concentration [4] was 125.52 pg/mL. For the same substance, the IL-13 cytokine concentration [4] was 60.72 pg/mL, the IL-17 cytokine concentration [4] was 618.22 pg/mL and the TNF-α cytokine concentration [4] was 90.41 pg/mL. The IL-12p70 cytokine concentration [5] was 0 pg/mL, the IL-22 cytokine concentration [5] was 10982.2 pg/mL and the IFN-γ cytokine concentration [6] was 99.65 pg/mL. It also gave an IL-1 cytokine concentration [6] of 65.11 pg/mL, an IL-2 cytokine concentration [6] of 0 pg/mL and an IL-4 cytokine concentration [6] of 144.86 pg/mL. For the same substance, the IL-5 cytokine concentration [6] was 0 pg/mL, the IL-6 cytokine concentration [6] was 78.34 pg/mL and the IL-9 cytokine concentration [6] was 5.27 pg/mL. The IL-10 cytokine concentration [6] was 31.43 pg/mL, the IL-12 cytokine concentration [6] was 0 pg/mL and the IL-12p70 cytokine concentration [6] was 0 pg/mL. It also gave an IL-13 cytokine concentration [6] of 0 pg/mL, an IL-17 cytokine concentration [6] of 0 pg/mL and an IL-22 cytokine concentration [6] of 0 pg/mL. It also gave a TNF-α cytokine concentration [6] of 9.34 pg/mL, an IFN-γ cytokine concentration [7] of 736.13 pg/mL and an IL-1 cytokine concentration [7] of 212.49 pg/mL. For the same substance, the IL-2 cytokine concentration [7] was 179.25 pg/mL, the IL-4 cytokine concentration [7] was 70.92 pg/mL and the IL-5 cytokine concentration [7] was 157.36 pg/mL. It also gave an IL-6 cytokine concentration [7] of 130.87 pg/mL, an IL-9 cytokine concentration [7] of 147.79 pg/mL and an IL-10 cytokine concentration [7] of 84.32 pg/mL. The IL-13 cytokine concentration [7] was 62.95 pg/mL, the IL-17 cytokine concentration [7] was 487.56 pg/mL and the TNF-α cytokine concentration [7] was 116.88 pg/mL. The IL-12p70 cytokine concentration [8] was 0 pg/mL, the IL-22 cytokine concentration [8] was 10698.1 pg/mL and the IFN-γ cytokine concentration [9] was 0 pg/mL. The IL-1 cytokine concentration [9] was 0 pg/mL, the IL-2 cytokine concentration [9] was 0 pg/mL and the IL-4 cytokine concentration [9] was 129.6 pg/mL. For the same substance, the IL-5 cytokine concentration [9] was 0 pg/mL, the IL-6 cytokine concentration [9] was 282.85 pg/mL and the IL-9 cytokine concentration [9] was 0 pg/mL. The IL-10 cytokine concentration [9] was 118.77 pg/mL, the IL-12 cytokine concentration [9] was 0 pg/mL and the IL-12p70 cytokine concentration [9] was 0 pg/mL. The IL-13 cytokine concentration [9] was 0 pg/mL, the IL-17 cytokine concentration [9] was 0 pg/mL and the IL-22 cytokine concentration [9] was 0 pg/mL. It also gave a TNF-α cytokine concentration [9] of 0 pg/mL.
